Measured values from ChEMBL document CHEMBL3991601, “The target landscape of clinical kinase drugs” (Science, 2017).
Where a name gives a salt, the structure may show the parent alone. Activity calls are given as the source filed them.

How the values were obtained:
[1] = molecular target: Maternal embryonic leucine zipper kinase (Homo sapiens, UniProt Q14680)
[2] = molecular target: STE20-like serine/threonine-protein kinase (Homo sapiens, UniProt Q9H2G2)
[3] = molecular target: T1, STE20-related kinase adapter protein alpha (Homo sapiens, UniProt Q7RTN6)
T1 sequence (Q7RTN6 whole entry): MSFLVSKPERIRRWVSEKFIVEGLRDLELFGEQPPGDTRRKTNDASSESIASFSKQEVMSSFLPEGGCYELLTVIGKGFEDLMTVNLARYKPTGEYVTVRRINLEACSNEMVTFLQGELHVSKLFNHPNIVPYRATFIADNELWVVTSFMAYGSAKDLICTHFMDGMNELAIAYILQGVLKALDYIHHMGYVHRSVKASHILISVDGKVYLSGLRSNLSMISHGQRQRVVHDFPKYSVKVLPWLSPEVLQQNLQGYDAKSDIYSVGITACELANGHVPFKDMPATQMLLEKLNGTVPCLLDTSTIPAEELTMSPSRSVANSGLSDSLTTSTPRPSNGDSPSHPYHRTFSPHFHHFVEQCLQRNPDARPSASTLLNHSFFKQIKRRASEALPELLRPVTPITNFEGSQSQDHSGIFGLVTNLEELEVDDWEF

[4] = molecular target: DNA topoisomerase 2-alpha (Homo sapiens, UniProt P11388)
Sequence of DNA topoisomerase 2-alpha (P11388 whole entry): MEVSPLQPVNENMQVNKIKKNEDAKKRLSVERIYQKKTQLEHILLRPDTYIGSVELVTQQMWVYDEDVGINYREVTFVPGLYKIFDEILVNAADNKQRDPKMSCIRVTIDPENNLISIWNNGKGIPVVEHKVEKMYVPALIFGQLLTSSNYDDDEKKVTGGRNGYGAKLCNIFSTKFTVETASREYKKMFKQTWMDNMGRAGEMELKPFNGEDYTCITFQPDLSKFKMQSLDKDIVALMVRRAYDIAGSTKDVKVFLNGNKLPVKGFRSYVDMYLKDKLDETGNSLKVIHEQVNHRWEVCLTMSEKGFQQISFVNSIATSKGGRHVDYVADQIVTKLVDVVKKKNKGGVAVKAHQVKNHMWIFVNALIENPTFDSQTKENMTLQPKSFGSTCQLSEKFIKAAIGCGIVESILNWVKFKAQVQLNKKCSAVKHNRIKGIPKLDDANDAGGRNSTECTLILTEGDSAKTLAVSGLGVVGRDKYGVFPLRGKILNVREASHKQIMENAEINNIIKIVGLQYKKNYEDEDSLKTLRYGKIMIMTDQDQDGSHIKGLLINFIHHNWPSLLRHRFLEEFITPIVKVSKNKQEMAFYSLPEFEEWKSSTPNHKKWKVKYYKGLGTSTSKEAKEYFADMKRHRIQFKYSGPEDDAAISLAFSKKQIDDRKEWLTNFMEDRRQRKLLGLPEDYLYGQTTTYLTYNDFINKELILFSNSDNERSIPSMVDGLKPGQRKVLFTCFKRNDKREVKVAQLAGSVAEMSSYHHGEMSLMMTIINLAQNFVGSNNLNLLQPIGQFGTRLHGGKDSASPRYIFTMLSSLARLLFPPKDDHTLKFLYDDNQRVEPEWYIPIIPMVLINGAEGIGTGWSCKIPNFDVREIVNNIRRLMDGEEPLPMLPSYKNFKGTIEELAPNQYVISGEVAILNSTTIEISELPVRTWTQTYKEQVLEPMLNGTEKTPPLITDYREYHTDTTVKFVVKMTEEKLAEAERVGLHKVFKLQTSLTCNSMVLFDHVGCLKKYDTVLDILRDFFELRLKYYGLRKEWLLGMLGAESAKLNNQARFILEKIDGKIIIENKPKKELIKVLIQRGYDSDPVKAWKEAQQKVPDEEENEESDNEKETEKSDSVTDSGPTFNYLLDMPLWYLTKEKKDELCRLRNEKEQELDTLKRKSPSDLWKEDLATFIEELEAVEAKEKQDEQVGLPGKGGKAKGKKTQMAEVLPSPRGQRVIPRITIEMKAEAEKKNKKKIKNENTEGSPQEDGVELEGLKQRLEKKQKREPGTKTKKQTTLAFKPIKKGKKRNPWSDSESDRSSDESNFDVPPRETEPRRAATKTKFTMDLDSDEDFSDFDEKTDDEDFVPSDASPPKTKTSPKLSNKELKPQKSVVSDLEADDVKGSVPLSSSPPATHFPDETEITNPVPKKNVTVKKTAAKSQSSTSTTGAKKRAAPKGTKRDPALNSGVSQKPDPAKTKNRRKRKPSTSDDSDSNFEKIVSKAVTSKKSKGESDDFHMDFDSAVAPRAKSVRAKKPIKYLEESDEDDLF

Midasin = Midasin (Homo sapiens, UniProt Q9NU22)
Ephrin type-B receptor 4 = molecular target: T2, Ephrin type-B receptor 4 (Homo sapiens, UniProt P54760)
T2 sequence (P54760 whole entry): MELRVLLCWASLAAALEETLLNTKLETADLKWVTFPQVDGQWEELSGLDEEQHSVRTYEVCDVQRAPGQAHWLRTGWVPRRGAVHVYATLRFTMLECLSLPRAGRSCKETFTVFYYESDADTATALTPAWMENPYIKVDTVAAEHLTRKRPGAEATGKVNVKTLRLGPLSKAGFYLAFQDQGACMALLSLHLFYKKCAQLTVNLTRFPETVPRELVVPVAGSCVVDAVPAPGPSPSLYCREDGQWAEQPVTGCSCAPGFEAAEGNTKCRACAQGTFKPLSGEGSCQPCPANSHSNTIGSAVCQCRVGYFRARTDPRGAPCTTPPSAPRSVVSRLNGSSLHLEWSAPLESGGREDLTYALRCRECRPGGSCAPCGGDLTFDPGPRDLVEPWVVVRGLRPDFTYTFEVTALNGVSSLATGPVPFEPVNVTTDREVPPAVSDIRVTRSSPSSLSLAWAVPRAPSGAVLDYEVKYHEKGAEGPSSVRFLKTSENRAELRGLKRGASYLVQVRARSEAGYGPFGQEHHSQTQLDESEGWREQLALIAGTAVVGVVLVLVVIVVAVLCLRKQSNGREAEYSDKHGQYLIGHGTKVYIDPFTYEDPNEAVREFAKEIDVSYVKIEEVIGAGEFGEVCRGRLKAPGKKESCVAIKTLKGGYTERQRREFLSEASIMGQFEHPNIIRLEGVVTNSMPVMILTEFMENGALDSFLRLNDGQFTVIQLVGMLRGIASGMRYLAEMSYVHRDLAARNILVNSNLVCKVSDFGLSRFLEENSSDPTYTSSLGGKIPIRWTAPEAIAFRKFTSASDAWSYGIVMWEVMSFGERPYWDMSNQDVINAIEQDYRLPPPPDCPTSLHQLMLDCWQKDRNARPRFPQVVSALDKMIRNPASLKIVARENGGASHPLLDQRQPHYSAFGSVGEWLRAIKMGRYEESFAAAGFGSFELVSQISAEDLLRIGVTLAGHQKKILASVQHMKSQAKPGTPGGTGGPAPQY

[5] = molecular target: Mitogen-activated protein kinase 10 (Homo sapiens, UniProt P53779)
Sequence of Mitogen-activated protein kinase 10 (P53779 whole entry): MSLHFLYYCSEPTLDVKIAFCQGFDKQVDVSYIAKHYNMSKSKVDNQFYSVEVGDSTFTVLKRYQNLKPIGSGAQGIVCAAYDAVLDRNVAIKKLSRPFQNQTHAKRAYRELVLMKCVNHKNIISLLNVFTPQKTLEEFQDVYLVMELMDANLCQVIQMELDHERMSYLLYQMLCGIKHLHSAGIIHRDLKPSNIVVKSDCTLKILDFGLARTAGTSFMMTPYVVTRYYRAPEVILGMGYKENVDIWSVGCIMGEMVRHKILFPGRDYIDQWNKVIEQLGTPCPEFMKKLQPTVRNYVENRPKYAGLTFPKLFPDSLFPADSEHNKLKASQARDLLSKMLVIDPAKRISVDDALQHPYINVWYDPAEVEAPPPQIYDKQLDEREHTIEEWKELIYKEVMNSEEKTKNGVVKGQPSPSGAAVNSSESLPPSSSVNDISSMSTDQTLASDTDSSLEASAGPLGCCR

[6] = molecular target: Serine/threonine-protein kinase N1 (Homo sapiens, UniProt Q16512)
Sequence of Serine/threonine-protein kinase N1 (Q16512 whole entry): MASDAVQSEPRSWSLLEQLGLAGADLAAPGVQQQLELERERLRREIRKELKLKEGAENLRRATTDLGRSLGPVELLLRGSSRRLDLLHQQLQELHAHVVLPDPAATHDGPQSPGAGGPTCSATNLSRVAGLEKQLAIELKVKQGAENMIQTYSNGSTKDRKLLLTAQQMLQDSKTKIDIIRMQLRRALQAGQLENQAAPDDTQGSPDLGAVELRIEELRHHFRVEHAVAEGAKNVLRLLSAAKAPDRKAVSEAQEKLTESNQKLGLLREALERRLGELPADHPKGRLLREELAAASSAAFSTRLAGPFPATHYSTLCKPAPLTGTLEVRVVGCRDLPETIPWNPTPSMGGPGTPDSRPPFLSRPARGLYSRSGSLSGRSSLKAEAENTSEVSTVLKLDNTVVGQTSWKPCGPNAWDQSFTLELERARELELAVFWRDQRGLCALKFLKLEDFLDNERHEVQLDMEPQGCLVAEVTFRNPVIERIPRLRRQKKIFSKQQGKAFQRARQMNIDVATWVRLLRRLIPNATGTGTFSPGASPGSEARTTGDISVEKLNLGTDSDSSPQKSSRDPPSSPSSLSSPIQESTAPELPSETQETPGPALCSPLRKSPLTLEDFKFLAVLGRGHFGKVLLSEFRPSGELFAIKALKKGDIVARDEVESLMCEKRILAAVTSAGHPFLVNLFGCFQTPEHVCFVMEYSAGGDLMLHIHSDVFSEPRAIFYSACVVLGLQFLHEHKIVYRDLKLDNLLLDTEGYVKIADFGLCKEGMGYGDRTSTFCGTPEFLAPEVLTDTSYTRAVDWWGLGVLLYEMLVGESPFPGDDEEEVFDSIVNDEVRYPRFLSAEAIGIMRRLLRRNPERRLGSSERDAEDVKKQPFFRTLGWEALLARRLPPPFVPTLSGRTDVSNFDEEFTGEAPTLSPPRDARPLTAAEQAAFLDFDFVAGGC

ADP/ATP translocase 3 = molecular target: T3, ADP/ATP translocase 3 (Homo sapiens, UniProt P12236)
T3 sequence (P12236 whole entry): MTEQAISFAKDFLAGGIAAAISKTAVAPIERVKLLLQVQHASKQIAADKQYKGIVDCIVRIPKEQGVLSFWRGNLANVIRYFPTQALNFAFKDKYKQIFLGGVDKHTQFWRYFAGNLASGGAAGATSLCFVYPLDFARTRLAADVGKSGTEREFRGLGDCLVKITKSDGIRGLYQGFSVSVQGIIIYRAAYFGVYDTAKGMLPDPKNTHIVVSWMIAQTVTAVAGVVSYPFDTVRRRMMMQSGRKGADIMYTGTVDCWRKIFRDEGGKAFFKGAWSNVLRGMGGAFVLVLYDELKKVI

[7] = molecular target: T4, Acyl-CoA dehydrogenase family member 11 (Homo sapiens, UniProt Q709F0)
T4 sequence (Q709F0 whole entry): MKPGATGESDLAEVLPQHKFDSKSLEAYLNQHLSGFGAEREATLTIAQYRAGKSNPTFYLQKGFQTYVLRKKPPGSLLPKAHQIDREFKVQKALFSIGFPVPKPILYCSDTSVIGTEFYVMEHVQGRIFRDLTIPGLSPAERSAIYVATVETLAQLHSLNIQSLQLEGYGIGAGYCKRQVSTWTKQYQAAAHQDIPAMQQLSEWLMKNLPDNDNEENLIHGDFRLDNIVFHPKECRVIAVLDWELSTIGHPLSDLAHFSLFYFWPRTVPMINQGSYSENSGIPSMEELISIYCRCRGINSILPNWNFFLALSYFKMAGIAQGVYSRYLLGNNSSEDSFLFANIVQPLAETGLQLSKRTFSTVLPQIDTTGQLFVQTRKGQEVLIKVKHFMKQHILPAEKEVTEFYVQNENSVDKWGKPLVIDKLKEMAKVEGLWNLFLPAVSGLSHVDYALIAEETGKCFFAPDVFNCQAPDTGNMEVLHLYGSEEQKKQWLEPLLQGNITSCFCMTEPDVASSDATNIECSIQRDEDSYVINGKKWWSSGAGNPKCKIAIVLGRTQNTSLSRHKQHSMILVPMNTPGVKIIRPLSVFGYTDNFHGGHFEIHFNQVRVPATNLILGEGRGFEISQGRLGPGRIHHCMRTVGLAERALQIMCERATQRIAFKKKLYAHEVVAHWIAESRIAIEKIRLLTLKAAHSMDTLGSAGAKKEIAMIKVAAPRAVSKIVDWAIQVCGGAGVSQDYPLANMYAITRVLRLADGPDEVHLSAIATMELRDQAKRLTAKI
Note: in the data inactive means no Kd found up to 30 µM.

Sequence of Maternal embryonic leucine zipper kinase (Q14680 whole entry): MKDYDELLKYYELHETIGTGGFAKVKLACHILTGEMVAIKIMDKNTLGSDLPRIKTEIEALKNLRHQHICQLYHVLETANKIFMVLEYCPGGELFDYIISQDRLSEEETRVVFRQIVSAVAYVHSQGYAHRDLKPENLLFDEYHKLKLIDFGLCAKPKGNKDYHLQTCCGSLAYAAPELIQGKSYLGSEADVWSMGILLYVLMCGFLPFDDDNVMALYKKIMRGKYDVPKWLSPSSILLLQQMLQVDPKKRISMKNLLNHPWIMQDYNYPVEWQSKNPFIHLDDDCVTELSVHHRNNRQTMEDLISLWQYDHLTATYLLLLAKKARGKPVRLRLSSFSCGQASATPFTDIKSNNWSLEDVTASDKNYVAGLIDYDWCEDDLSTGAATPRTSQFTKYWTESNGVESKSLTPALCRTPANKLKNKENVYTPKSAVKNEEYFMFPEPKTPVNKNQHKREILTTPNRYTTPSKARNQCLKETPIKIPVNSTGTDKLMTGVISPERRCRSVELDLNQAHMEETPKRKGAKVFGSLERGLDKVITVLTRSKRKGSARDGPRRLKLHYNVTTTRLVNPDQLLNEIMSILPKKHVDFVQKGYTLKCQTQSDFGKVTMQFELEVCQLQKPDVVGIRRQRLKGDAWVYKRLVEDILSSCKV
Sequence of STE20-like serine/threonine-protein kinase (Q9H2G2 whole entry): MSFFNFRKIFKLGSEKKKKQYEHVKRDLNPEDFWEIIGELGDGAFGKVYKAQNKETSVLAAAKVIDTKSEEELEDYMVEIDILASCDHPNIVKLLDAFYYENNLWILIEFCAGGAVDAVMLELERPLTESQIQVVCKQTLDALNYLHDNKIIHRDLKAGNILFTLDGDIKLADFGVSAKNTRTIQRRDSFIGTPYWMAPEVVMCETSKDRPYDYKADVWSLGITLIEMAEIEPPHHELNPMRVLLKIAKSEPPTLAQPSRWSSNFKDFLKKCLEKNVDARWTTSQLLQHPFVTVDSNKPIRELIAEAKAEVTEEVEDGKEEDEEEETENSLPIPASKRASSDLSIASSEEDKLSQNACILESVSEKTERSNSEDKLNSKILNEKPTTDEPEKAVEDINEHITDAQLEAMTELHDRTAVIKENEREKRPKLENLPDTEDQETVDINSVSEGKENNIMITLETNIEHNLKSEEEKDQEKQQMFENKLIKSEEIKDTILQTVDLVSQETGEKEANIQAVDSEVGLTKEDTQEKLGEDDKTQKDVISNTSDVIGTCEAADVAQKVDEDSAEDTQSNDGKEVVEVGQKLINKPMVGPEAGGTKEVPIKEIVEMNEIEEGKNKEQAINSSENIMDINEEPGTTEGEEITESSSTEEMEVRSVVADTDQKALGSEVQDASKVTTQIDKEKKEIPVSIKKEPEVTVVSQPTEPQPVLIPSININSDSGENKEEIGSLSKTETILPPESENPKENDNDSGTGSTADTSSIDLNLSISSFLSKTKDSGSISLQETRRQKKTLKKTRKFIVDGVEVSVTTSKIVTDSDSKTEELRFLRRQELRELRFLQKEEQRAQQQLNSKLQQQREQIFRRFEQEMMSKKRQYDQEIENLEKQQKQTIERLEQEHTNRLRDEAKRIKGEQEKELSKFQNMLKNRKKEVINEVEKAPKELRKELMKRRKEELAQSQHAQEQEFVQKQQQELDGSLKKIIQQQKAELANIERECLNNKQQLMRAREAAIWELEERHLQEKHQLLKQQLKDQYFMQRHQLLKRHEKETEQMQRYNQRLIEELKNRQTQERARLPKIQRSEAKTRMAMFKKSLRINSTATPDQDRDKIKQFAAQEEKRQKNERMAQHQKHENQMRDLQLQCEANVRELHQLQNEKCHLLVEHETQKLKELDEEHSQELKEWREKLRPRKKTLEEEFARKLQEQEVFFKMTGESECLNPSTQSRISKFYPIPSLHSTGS

SMILES | Kd [1] | Kd [2] | Kd [3] | Kd [4] | Kd (Midasin) | Kd (Ephrin type-B receptor 4) | Kd [5] | Kd [6] | Kd (ADP/ATP translocase 3) | Kd [7]
C[C@@H](Oc1cc(C(=O)Nc2ccc(C(=O)N3CCN(C)CC3)cc2)nnc1N)c1c(Cl)ccc(F)c1Cl | > 30 µM (inactive) | > 30 µM (inactive) | > 30 µM (inactive) | > 30 µM (inactive) | > 30 µM (inactive) | > 30 µM (inactive) | > 30 µM (inactive) | > 30 µM (inactive) | > 30 µM (inactive) | 
C=CC(=O)Nc1cc2c(Nc3ccc(F)c(Cl)c3)ncnc2cc1C#CC(C)(C)N1CCN(C)CC1 [AV-412 FREE BASE] | > 30 µM (inactive) | 13.4 µM (active) | > 30 µM (inactive) | > 30 µM (inactive) | > 30 µM (inactive) | > 30 µM (inactive) | > 30 µM (inactive) | > 30 µM (inactive) | > 30 µM (inactive) | 
COc1cc([C@@H]2c3cc4c(cc3[C@H](O)[C@H]3COC(=O)[C@@H]23)OCO4)cc(OC)c1OC [AXL-1717] | > 30 µM (inactive) | > 30 µM (inactive) | > 30 µM (inactive) | 0.486 µM | > 30 µM (inactive) | > 30 µM (inactive) | > 30 µM (inactive) | > 30 µM (inactive) | > 30 µM (inactive) | 
CCS(=O)(=O)N1CCN(c2ccc(Nc3ncc(C(N)=O)c(NC4CC4)n3)cc2)CC1 [Cerdulatinib Hydrochloride] | > 30 µM (inactive) | > 30 µM (inactive) | > 30 µM (inactive) | > 30 µM (inactive) | > 30 µM (inactive) | > 30 µM (inactive) |  | > 30 µM (inactive) | > 30 µM (inactive) | > 30 µM (inactive)
CC(C)(C)c1nc(-c2cccc(NS(=O)(=O)c3c(F)cccc3F)c2F)c(-c2ccnc(N)n2)s1 [DABRAFENIB] | 1.82 µM (active) | > 30 µM (inactive) | > 30 µM (inactive) | > 30 µM (inactive) | > 30 µM (inactive) |  | > 30 µM (inactive) | > 30 µM (inactive) | > 30 µM (inactive) | > 30 µM (inactive)
Cc1nc2cc(-n3ncc(C(=O)c4cc5ccccc5[nH]4)c3N)ccc2[nH]1 [FGFR INHIBITOR DEBIO 1347] | > 30 µM (inactive) | > 30 µM (inactive) |  | > 30 µM (inactive) | > 30 µM (inactive) | > 30 µM (inactive) | > 30 µM (inactive) | > 30 µM (inactive) | > 30 µM (inactive) | 
CN(C[C@@H]1COCCO1)S(=O)(=O)Nc1ccc2ccc3ncc(-c4cnn(C)c4)cc3c(=O)c2c1 [MK-2461] | > 30 µM (inactive) | > 30 µM (inactive) | > 30 µM (inactive) | > 30 µM (inactive) | > 30 µM (inactive) | > 30 µM (inactive) | 4.7 µM (active) | > 30 µM (inactive) | > 30 µM (inactive) | 
Cn1cc(-c2cnc3ccc4ccc(CS(=O)(=O)NCc5ccccn5)cc4c(=O)c3c2)cn1 [MK-8033] | > 30 µM (inactive) | > 30 µM (inactive) | > 30 µM (inactive) |  | > 30 µM (inactive) | > 30 µM (inactive) | > 30 µM (inactive) | > 30 µM (inactive) | > 30 µM (inactive) | > 30 µM (inactive)
CN1CCN(CCOc2cc(OC3CCOCC3)c3c(Nc4c(Cl)ccc5c4OCO5)ncnc3c2)CC1 [SARACATINIB] | > 30 µM (inactive) |  | > 30 µM (inactive) | > 30 µM (inactive) | > 30 µM (inactive) | 3.88 µM (active) | > 30 µM (inactive) | > 30 µM (inactive) | > 30 µM (inactive) | > 30 µM (inactive)
C[C@@H](NC(=O)c1ncnc(N)c1Cl)c1ncc(C(=O)Nc2cc(C(F)(F)F)c(Cl)cn2)s1 [TOVORAFENIB] | > 30 µM (inactive) | > 30 µM (inactive) | > 30 µM (inactive) | > 30 µM (inactive) | > 30 µM (inactive) | 9.43 µM (active) | > 30 µM (inactive) | > 30 µM (inactive) | > 30 µM (inactive) | 
Cn1ncc(Cl)c1-c1cc(C(=O)N[C@H](CN)Cc2ccc(F)c(F)c2)oc1Cl [UPROSERTIB] | 0.24 µM | > 30 µM (inactive) | > 30 µM (inactive) | > 30 µM (inactive) | > 30 µM (inactive) | > 30 µM (inactive) | > 30 µM (inactive) | 0.076 µM (active) | > 30 µM (inactive) | 

The remaining lines, values ahead:

Kd [1] | Kd [2] | Kd [3] | Kd [4] | Kd (Midasin) | Kd (Ephrin type-B receptor 4) | Kd [5] | Kd [6] | Kd (ADP/ATP translocase 3) | Kd [7] | SMILES
> 30 µM (inactive) | > 30 µM (inactive) | > 30 µM (inactive) | > 30 µM (inactive) | > 30 µM (inactive) | > 30 µM (inactive) | > 30 µM (inactive) | > 30 µM (inactive) | > 30 µM (inactive) |  | Nc1ncnc2c1c(-c1cccc(OCc3ccccc3)c1)cn2[C@H]1C[C@@H](CN2CCC2)C1 [AEW-541]
> 30 µM (inactive) | > 30 µM (inactive) | > 30 µM (inactive) | > 30 µM (inactive) |  | > 30 µM (inactive) | > 30 µM (inactive) | > 30 µM (inactive) | > 30 µM (inactive) | > 30 µM (inactive) | Cc1csc(-c2nnc(Nc3ccc(Oc4ncccc4-c4ccnc(N)n4)cc3)c3ccccc23)c1 [AMG-900]
0.057 µM (active) | > 30 µM (inactive) | > 30 µM (inactive) | > 30 µM (inactive) | > 30 µM (inactive) | > 30 µM (inactive) | > 30 µM (inactive) |  | > 30 µM (inactive) | > 30 µM (inactive) | Cc1nc(Nc2n[nH]c3c2CN(C(=O)N[C@H](CN(C)C)c2ccccc2)C3(C)C)c2sccc2n1 [PF-03758309]
4.69 µM (active) | 2.08 µM (active) | > 30 µM (inactive) |  | > 30 µM (inactive) | > 30 µM (inactive) | > 30 µM (inactive) | > 30 µM (inactive) | > 30 µM (inactive) | > 30 µM (inactive) | Cn1cc(-c2cnn3c(N)c(Br)c([C@@H]4CCCNC4)nc23)cn1 [SCH-900776]
